Results reported in US11680047B2, “Enhanced erythropoiesis and iron metabolism” (FibroGen, Inc., priority 2003, dated 2023).

Key:
EPO production [1] = experiment: Secreted EPO (ELISA) in Hep3B cells treated with IL-6; format: cell-based; conditions: for effect of compound treatment on EPO production in the presence of IL-6: compound plus IL-6
Description: Secreted EPO levels were determined using a commercially available ELISA kit (R&D Systems, catalog no. DEP00). […] As shown in FIGS. 27A and 27B, Hep3B cells treated with IL-6 increased EPO expression slightly above that in non-treated cells. Specifically, EPO levels in control cells was approximately 20 mIU/ml, while that in cells treated with 10 ng/ml IL-6 was approximately 50 mIU/ml.

transferrin receptor [2] = experiment: Transferrin receptor expression by FACS (CD71-PE antibody) in Hep3B cells; format: cell-based; conditions: 1 day
Description: (§1) The effect of compounds of the invention on transferrin receptor expression was examined as follows. Various cells (Hep3B, HepG2, HK-2) were incubated with compound A or compound B for 1 day. The cells were then analyzed for transferrin receptor expression by FACS analysis using CD71-PE antibody (Ancell, catalog no. 223-050).

transferrin receptor [3] = experiment: Transferrin receptor expression by FACS (CD71-PE antibody) in HepG2 cells; format: cell-based; conditions: HepG2, 1 day
Description: as §1

EPO production [4] = experiment: Secreted EPO (ELISA) in Hep3B cells treated with IL-1β; format: cell-based; conditions: for effect on suppression of EPO production by IL-1β: 2-hour pre-treatment with IL-1β, EPO 3 days after compound addition; for effect on inhibition of EPO production by IL-1β: compound in the presence of IL-1β (0.4-10 ng/ml); for effect on inhibition of EPO production by IL-1β / EPO production: 3 days; for EPO production: various concentrations of compound, absence of IL-1β
Description: (§2) Hep3B cells were treated with various concentrations (0, 0.4, 2, 10 ng/ml) of IL-1β in the absence or presence of compound A or compound B for 3 days. Secreted EPO levels were determined using a commercially available ELISA kit (R&D Systems, catalog no. DEP00). In the absence of compound, treatment of Hep3B cells with IL-1β reduced EPO production in a dose-dependent manner. […] Therefore, inhibitory effects of the inflammatory cytokine IL-1β on EPO production were overcome by inhibition of prolyl hydroxylase activity using compounds and methods of the present invention. […] Further, the methods and compounds of the present invention are useful to increase EPO production and, therefore, to treat anemia in a subject, for example, wherein the subject has a disorder associated with IL-1β such as acute or chronic inflammation or other anemia of chronic disease.
(§3) A series of experiments were performed to examine the effects of compounds of the present invention on EPO production following exposure of cells to the inflammatory cytokine IL-1β (i.e., in cells already exposed to IL-1β). In these experiments, IL-1β signaling would therefore be initiated prior to the addition of a prolyl hydroxylase inhibitor. Hep3B cells were treated with various concentrations (0, 0.4, 2, 10 ng/ml) of IL-1β for 2 hours, after which various concentrations of compound A or compound B were added to the cultured cells. Secreted EPO levels were determined as described above 3 days following compound addition.

NRAMP2 = NRAMP2 mRNA in small intestine of mice after IV administration (microarray); format: in vivo, mouse; conditions: 60 mg/kg IV, 4 hours
Description: In another experiment, mRNA was isolated from small intestine harvested 4 hours following IV administration of 60 mg/kg compound A, compound B, and compound C to mice. Probes were prepared from each of two animals from 5 treatment groups, and hybridized to Affymetrix mouse MOE430Aplus2 microarrays (one animal per array). Statistical comparisons of data obtained from arrays from treated versus non-treated animals was performed. […] Expression levels are shown as fold-induction over control, untreated animals for each expressed gene.

transferrin receptor [5] = experiment: Transferrin receptor expression by FACS (CD71-PE antibody) in HK-2 cells; format: cell-based; conditions: HK-2, 1 day
Description: as §1

EPO production [6] = experiment: Secreted EPO (ELISA) in Hep3B cells treated with TNF-α; format: cell-based; conditions: for effect on suppression of EPO production by TNF-α: 2-hour pre-treatment with TNF-α, EPO 3 days after compound addition; for effect on inhibition of EPO production by TNF-α: compound in the presence of TNF-α (0.4-10 ng/ml); for effect on inhibition of EPO production by TNF-α / EPO production: 3 days; for EPO production: various concentrations of compound, absence of TNF-α
Description: as §2, with “ng/ml) of TNF-α in the” for “ng/ml) of IL-1β in the”, “cells with TNF-α reduced EPO” for “cells with IL-1β reduced EPO”, “inflammatory cytokine TNF-α on EPO” for “inflammatory cytokine IL-1β on EPO”, “associated with TNF-αQ such as” for “associated with IL-1β such as”
as §3, with “TNF-α” for “IL-1β”, “TNF-α).” for “IL-1β).”

[7] = 10 µM compound, absence of IL-6
[8] = compound in the presence of 10 ng/ml IL-6

| Compound | EPO levels (EPO production [1]; [7]) | EPO levels (EPO production [1]; [8]) | effect of compound treatment on EPO production in the presence of IL-6 (EPO production [1]) | EPO levels (EPO production [1]; compound without IL-6) | Mean FL (transferrin receptor) (transferrin receptor [2]) | Mean FL (transferrin receptor) (transferrin receptor [3]) | effect on suppression of EPO production by IL-1β (EPO production [4]) | effect on inhibition of EPO production by IL-1β (EPO production [4]) | EPO production (EPO production [4]) | NRAMP2 mRNA expression in small intestine (NRAMP2) | Mean FL (transferrin receptor) (transferrin receptor [5]) | effect on suppression of EPO production by TNF-α (EPO production [6]) | effect on inhibition of EPO production by TNF-α (EPO production [6]) | EPO production (EPO production [6]) |
| --- | --- | --- | --- | --- | --- | --- | --- | --- | --- | --- | --- | --- | --- | --- |
| O=C(O)CNC(=O)c1ncc2cc(Oc3ccccc3)ccc2c1O [Compound B, [(4-Hydroxy-7-phenoxy-isoquinoline-3-carbonyl)-amino]-acetic acid] | ~220 mIU/ml | greater than 400 mIU/ml | synergistic | increased EPO levels in a dose-dependent manner | 42.43 | 53.53 | overcame the suppressive effects of IL-1 on EPO production | greatly reduced the inhibitory effects of IL-1β on EPO production | dose-dependent increase in EPO production | increasing expression of NRAMP2 in intestine | 18.92 | overcame the suppressive effects of TNF-α on EPO production | greatly reduced the inhibitory effects of TNF-α on EPO production | dose-dependent increase in EPO production |
| O=C(O)CNC(=O)c1nc(Cl)c2ccccc2c1O [Compound A, [(1-Chloro-4-hydroxy-isoquinoline-3-carbonyl)-amino]-acetic acid] | approximately 60 mIU/ml | approximately 270 mIU/ml | synergistic | increased EPO levels in a dose-dependent manner | 40.89 | 56.52 | overcame the suppressive effects of IL-1 on EPO production | greatly reduced the inhibitory effects of IL-1β on EPO production | dose-dependent increase in EPO production | increasing expression of NRAMP2 in intestine | 12.20 | overcame the suppressive effects of TNF-α on EPO production | greatly reduced the inhibitory effects of TNF-α on EPO production | dose-dependent increase in EPO production |
